Assay results taken from ChEMBL document CHEMBL4000199, “Synthesis and biological evaluation of novel hydroxybenzaldehyde-based kojic acid analogues as inhibitors of mushroom tyrosinase” (Bioorg Med Chem Lett, 2017).
The source made the active and inactive calls. The rule behind the calls is not given here.

These molecules were tested against Mushroom tyrosinase (Agaricus bisporus, UniProt O42713+Q00024+C7FF04+C7FF05) (assay: Inhibition of mushroom tyrosinase using L-tyrosine as substrate measured after 20 mins).

Molecule O=c1cc(CSc2ccc(O)cc2)occ1O has an IC50 of 0.54 µM.

These molecules were tested against T1, Tyrosinase (Agaricus bisporus) (UniProt O42713) (assay: (§1) Inhibition of mushroom tyrosinase diphenolase activity assessed as reduction in dopachrome formation using L-DOPA as substrate preincubated for 20 mins followed by substrate addition measured for 1 min).
T1 sequence (whole entry): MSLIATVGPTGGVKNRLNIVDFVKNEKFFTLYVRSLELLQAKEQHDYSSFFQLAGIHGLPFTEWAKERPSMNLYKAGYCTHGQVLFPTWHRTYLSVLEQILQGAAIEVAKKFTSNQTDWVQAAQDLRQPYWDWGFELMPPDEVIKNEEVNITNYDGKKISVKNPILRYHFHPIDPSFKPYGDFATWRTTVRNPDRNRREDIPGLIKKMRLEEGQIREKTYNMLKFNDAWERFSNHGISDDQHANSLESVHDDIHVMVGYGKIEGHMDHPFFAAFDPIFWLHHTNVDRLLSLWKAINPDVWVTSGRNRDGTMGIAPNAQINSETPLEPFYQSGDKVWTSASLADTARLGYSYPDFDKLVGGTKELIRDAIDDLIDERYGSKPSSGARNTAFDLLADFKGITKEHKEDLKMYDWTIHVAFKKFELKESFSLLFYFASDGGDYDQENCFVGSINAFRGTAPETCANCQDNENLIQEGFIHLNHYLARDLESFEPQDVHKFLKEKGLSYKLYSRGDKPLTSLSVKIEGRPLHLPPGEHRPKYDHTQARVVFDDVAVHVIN

In the case of O=c1cc(CSc2nnc(-c3ccccc3)n2NCc2ccc(O)cc2O)occ1O, the inhibition is reported as “Dose-dependent effect”.

The molecules below were run against T2, Tyrosinase (Agaricus bisporus, UniProt O42713) (assay: as §1).
T2 sequence (O42713 whole entry): T1 sequence (whole entry)

First: O=c1cc(CSc2nnc(-c3ccc(Cl)cc3)n2NCc2ccccc2O)occ1O
Second: Cc1ccc(-c2nnc(SCc3cc(=O)c(O)co3)n2NCc2ccccc2O)cc1
The IC50 of the first is 2.2-fold lower: 1.71 µM for the first, 3.8 µM for the second. The first is the more potent here.

First: O=c1cc(CSc2nnc(-c3cccc(Cl)c3)n2NCc2ccccc2O)occ1O
Second: O=c1cc(CSc2nnc(-c3ccccc3)n2NCc2ccccc2O)occ1O
The IC50 of the first is 1.7-fold higher: 2.5 µM for the first, 1.5 µM for the second.

O=c1cc(CSc2nncn2/N=C/c2ccc(O)cc2O)occ1O and O=c1cc(CSc2nncn2/N=C/c2ccc(O)cc2)occ1O are within 1.5-fold of each other in IC50: 9.6 µM for the first, 8.54 µM for the second.

Going from O=c1cc(CSc2nnc(-c3ccccc3Cl)n2/N=C/c2ccc(O)c(O)c2)occ1O to O=c1cc(CSc2nnc(-c3ccccc3)n2NCc2ccc(O)cc2O)occ1O, the IC50 falls from 5.2 µM to 1.35 µM (3.9-fold).

Going from O=c1cc(CSc2nncn2NCc2ccccc2O)occ1O to Cc1nnc(SCc2cc(=O)c(O)co2)n1NCc1ccccc1O, the IC50 rises from 5.85 µM to 10.2 µM (1.7-fold).

CCc1nnc(SCc2cc(=O)c(O)co2)n1NCc1ccccc1O and Cc1nnc(SCc2cc(=O)c(O)co2)n1NCc1ccc(O)cc1O are within 1.5-fold of each other in IC50: 7.6 µM for the first, 5.8 µM for the second.

Cc1nnc(SCc2cc(=O)c(O)co2)n1NCc1cccc(O)c1 and COc1cc(/C=N/n2cnnc2SCc2cc(=O)c(O)co2)ccc1O are within 1.5-fold of each other in IC50: 12.5 µM for the first, 17.5 µM for the second.

The molecules below were run against T1, Tyrosinase (Agaricus bisporus) (assay: Competitive inhibition of mushroom tyrosinase up to 1.2 uM using varying levels of L-DOPA as substrate preincubated for 20 mins followed by substrate addition measured for 1 min by Lineweaver-Burk plot analysis).

O=c1cc(CSc2nnc(-c3ccccc3)n2NCc2ccc(O)cc2O)occ1O was tested, and the inhibition was “Active”.
